Results taken from patent US11679111B2, “Fatty acid synthase inhibitors” (priority 2016, dated 2023).

Molecular target: T1, FASN (Sus scrofa, UniProt A5YV76)
T1 construct: from tissue; host or cells: lactating porcine mammary gland extract
Assay: FLECS screen, elution of fluorescein labeled proteins from Cibacron blue resin
Type: binding, porcine
Settings: SDS-PAGE and mass spectrometry
From the text: To specifically identify inhibitors of FASN targeting its nucleotide binding pockets Cibacron blue Sepharose was utilized. This medium has been used previously to purify NAD and NADP binding proteins from crude tissues extracts (Miyaguchi et al., 2011; Muratsubaki et al., 1994). FASN enriched extract from lactating pig mammary gland was bound to the resin and labeled with cysteine reactive fluorescein. […] One hundred and fifty-five of the molecules selectively eluted FASN from the resin, and 20 potential lead compounds were progressed according to their FASN selectivity (assessed with SDS-PAGE, silver staining and mass spectrometry). These twenty compounds were reduced to 13 based on the absence of any obvious chemical liabilities. Next, the molecules were tested for their ability to inhibit FASN activity in a HepG2 cell based assay that measured the incorporation of ^3H glucose into lipids (FIG. 1B and FIG. 9).
Porcine mammary glands were collected from lactating pigs as previously described (Hughes et al., 2012). Tissues were homogenized in lysis buffer A (100 mM sodium fluoride, 5 mM EDTA, 1 mM DTT and 5% glycerol made in 10 mM sodium phosphate buffer pH 7.5) in a ratio of 3 ml of buffer per each gram of tissue. […] Fluorescence in each well was measured at Ex/Em: 485/535 nm. […]

T1 sequence (A5YV76 entry or part of it): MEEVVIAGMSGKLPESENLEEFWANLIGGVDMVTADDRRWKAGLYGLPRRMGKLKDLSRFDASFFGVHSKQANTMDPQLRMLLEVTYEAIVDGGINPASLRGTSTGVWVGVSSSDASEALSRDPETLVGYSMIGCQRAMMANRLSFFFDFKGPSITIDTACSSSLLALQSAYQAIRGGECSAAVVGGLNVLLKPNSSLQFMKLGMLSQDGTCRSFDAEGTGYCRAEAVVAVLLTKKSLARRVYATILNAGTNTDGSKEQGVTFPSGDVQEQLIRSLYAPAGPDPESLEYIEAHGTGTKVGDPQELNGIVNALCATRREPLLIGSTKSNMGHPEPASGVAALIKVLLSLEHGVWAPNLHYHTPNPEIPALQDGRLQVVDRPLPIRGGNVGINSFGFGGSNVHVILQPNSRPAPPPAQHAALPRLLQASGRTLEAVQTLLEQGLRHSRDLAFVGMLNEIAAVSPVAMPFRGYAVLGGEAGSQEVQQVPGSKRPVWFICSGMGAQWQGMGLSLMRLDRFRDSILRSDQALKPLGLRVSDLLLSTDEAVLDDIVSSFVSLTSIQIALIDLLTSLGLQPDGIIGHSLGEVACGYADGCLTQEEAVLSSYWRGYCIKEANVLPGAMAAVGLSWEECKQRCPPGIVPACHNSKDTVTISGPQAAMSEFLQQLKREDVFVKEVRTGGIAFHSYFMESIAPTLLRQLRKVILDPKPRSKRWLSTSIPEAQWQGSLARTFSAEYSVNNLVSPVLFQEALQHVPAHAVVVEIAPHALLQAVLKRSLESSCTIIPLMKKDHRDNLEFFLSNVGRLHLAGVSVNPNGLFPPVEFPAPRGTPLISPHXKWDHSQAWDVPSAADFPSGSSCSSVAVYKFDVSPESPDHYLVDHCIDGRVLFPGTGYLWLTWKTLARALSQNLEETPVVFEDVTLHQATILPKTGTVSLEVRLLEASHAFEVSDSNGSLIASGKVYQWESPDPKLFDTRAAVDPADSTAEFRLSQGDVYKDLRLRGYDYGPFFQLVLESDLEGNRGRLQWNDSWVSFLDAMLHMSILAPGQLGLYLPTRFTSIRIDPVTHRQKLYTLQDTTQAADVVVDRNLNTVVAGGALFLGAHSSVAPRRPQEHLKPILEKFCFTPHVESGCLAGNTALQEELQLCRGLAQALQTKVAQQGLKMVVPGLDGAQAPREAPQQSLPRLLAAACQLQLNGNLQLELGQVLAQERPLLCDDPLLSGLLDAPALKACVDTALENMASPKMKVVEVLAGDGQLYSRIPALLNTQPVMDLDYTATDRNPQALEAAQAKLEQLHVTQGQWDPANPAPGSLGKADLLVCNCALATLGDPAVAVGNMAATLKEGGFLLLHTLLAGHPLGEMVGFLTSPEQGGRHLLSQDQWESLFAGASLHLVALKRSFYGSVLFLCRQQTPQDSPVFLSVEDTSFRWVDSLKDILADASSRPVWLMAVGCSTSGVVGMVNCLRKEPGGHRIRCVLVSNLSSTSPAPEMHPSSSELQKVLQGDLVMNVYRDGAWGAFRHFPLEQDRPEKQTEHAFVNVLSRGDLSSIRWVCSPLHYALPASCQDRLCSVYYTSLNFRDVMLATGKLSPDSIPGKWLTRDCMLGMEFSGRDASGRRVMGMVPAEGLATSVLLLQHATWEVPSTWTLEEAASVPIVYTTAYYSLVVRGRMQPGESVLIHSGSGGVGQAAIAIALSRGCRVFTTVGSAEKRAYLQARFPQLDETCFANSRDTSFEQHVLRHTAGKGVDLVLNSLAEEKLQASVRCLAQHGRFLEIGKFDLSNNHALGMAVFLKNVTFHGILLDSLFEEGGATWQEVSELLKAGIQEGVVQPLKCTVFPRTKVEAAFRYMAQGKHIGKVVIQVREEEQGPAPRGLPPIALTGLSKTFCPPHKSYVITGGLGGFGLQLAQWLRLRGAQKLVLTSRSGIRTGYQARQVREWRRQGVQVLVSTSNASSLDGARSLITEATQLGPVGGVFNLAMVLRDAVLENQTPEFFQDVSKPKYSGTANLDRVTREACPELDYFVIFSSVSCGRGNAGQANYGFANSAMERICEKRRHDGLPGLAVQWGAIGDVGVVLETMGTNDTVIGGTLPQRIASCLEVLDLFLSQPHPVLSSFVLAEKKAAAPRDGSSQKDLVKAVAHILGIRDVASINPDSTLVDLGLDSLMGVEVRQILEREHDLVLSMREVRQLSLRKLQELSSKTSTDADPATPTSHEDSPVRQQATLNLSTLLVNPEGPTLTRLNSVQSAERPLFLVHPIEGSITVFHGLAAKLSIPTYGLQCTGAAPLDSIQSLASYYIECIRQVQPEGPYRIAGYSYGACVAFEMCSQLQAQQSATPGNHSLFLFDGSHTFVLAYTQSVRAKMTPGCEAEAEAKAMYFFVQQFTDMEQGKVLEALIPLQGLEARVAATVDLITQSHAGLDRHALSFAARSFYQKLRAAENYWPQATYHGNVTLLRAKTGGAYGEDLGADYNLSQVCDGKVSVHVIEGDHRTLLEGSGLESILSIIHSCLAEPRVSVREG

SMILES: Cc1sc2ncnc(NC3CCN(Cc4ccccc4)C3)c2c1C (racemic) [HS-106, N-(1-benzylpyrrolidin-3-yI)-5,6-dimethylthieno[2,3-d]pyrimidin-4-amine]
- elution of FASN from Cibacron blue resin (hit strength / selectivity): selectively elutes FASN
